The values below come from patent US11253525B2, “Inhibitors of indoleamine 2,3-dioxygenase and methods of their use” (BRISTOL-MYERS SQUIBB COMPANY, priority 2018, dated 2022).

Where two headings read alike, the source gives them in different places.

For the assay, the target named is T1, indoleamine 2,3-dioxygenase (IDO) (Homo sapiens, UniProt P14902).
T1 construct: replaced with media containing IFNγ (#285-IF/CF, R&D Systems) at a final concentration of 25 ng/mL; endogenous in cells; host or cells: HeLa (ATCC CCL-2), IFN-gamma stimulated
As to the kind of experiment: HeLa cell-based indoleamine 2,3-dioxygenase (IDO) assay, kynurenine production. The following applies: HeLa cells, IFNγ 25 ng/mL, 48 hour incubation. How it is done:
Assessment of Inhibitor Activity in HeLa Cell-Based Indoleamine 23-Dioxygenase (IDO) Assay
Cells were maintained in a humidified incubator at 37° C. in 5% CO2.
IDO activity was assessed as a function of kynurenine production as follows: HeLa cells were seeded in a 96-well culture plate at a density of 5,000 cells/well and allowed to equilibrate overnight. […] A serial dilution of each test compound was added to the cells in a total volume of 200 μL of culture medium. After a further 48 hour incubation, 170 μL of supernatant was transferred from each well to a fresh 96-well plate. 12.1 μL of 6.1N trichloroacetic acid (#T0699, Sigma-Aldrich) was added to each well and mixed, followed by incubation at 65° C. for 20 minutes to hydrolyze N-formylkynurenine, the product of indoleamine 2,3-dioxygenase, to kynurenine. The reaction mixture was then centrifuged for 10 mins at 500×g to sediment the precipitate. 100 μL of the supernatant was transferred from each well to a fresh 96-well plate. […] Kynurenine concentrations were determined by measuring absorbance at 480 nm and calibrating against an L-kynurenine (#K8625, Sigma-Aldrich) standard curve using a SPECTRAMAX® M2e microplate reader (Molecular Devices). The percentage activity at each inhibitor concentration was determined and IC50 values assessed using nonlinear regression.

Setting [1] is: read-out: IDO Hela IC50 class (A < 50, B < 250, C < 2000).

T1 sequence (P14902 whole entry): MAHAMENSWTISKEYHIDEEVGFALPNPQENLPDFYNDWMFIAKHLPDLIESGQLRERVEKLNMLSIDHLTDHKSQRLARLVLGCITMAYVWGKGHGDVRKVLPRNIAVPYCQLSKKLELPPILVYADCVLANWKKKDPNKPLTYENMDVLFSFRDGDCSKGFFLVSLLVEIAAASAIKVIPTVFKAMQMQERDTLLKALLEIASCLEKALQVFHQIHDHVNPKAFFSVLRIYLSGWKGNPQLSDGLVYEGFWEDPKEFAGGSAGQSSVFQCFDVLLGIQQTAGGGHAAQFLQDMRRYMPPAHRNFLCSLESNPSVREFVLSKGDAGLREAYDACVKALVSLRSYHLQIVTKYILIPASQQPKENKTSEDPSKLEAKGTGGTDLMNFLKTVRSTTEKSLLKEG

For the compound `CCO[C@@H](c1ccc([C@H](COC)CC(=O)O)cc1Nc1cnc(OC)nc1)C(F)(F)F` (single isomer, unassigned) [Example 69], the IC50 – broadly, the point on the concentration scale where inhibition reaches its midpoint – (read-out: IDO Hela IC50) was 0.62 µM. Same read-out and setting: for `CCc1ncc(Nc2cc([C@H](CC)CC(=O)O)ccc2[C@@H](CC)N2CCOCC2)cn1` (single isomer, unassigned) [Example 119] the value was 0.02 µM. For the compound “(S)-3-(3-(3-(4-cyano-3-fluorophenyl)ureido)-4-((R)-1-ethoxy-2,2,2-trifluoroethyl)phenyl)-4-methoxybutanoic acid [Example 63]”, the half-maximal inhibitory concentration (IC50) (read-out: IDO Hela IC50) came out at 0.02 µM and the IC50 under setting [1] is below 0.05 µM. For the compound `CCO[C@H](c1ccc([C@H](COC)CC(=O)O)cc1Nc1ncc(F)cn1)C(F)(F)F` (single isomer, unassigned) [Example 56], the IC50 under setting [1] was 0.25 to 2 µM. Turning to `CCOc1ncc(Nc2cc([C@@H](CC)CC(=O)O)ccc2[C@H](OCC)C(F)(F)F)cn1` (single isomer, unassigned) [Example 45], where the note is “read-out: IDO Hela IC50”, the IC50 came out at 0.03 µM. With `CCc1ncc(Nc2cc([C@@H](COC)CC(=O)O)ccc2[C@H](CC)N2CCOCC2)cn1` (relative stereo) [Example 102, (S)-3-(3-((2-ethylpyrimidin-5-yl)amino)-4-((S)-1-morpholinopropyl)phenyl)-4-methoxybutanoic acid], the IC50 (read-out: IDO Hela IC50) amounted to 0.89 µM. The same measure, in the same setting: for `CCOc1ncc(Nc2cc([C@@H](CC)CC(=O)O)ccc2[C@H](OC)C(F)(F)F)cn1` (single isomer, unassigned) [Example 99] the value was 0.03 µM.

Consider `CCO[C@H](c1ccc([C@H](COC)CC(=O)O)cc1Nc1cnc(OC)nc1)C(F)(F)F` (relative stereo) [Example 54, 3-(4-(1-ethoxy-2,2,2-trifluoroethyl)-3-((2-methoxypyrimidin-5-yl)amino)phenyl)-4-methoxybutanoic Acid], for which, where the note is “read-out: IDO Hela IC50”, the concentration for half-maximal inhibition (IC50) turned out to be 0.1 µM. `CCO[C@@H](c1ccc([C@@H](COC)CC(=O)O)cc1Nc1cnc(C)nc1)C(F)(F)F` [Example 81, (S)-3-(4-((S)-1-ethoxy-2,2,2-trifluoroethyl)-3-((2-methylpyrimidin-5-yl)amino)phenyl)-4-methoxybutanoic Acid]: under setting [1], the IC50 was 0.25 to 2 µM. With `CCOc1ncc(Nc2cc([C@@H](CC)CC(=O)O)ccc2[C@@H](OC)C(F)(F)F)cn1` (single isomer, unassigned) [Example 87], under “read-out: IDO Hela IC50”, the IC50 came to 0.13 µM. With `CC[C@@H](c1ccc([C@@H](COC)CC(=O)O)cc1Nc1ccc(C#N)cc1)N1CCOCC1` (single isomer, unassigned) [Example 101-1], the IC50 under setting [1] is below 0.05 µM.

On to `CCO[C@H](c1ccc([C@@H](COC)CC(=O)O)cc1Nc1ccc(C#N)cc1)C(F)(F)F` (single isomer, unassigned) [Example 65], for which the half-inhibitory concentration (IC50) (read-out: IDO Hela IC50) is 0.01 µM. Take `CCOc1cnc(Nc2cc([C@H](CC)CC(=O)O)ccc2[C@@H](OCC)C(F)(F)F)cn1` (single isomer, unassigned) [Example 13]: under “read-out: IDO Hela IC50”, the IC50 stood at 0.01 µM. Same read-out and setting: the same measure for `CCOC(c1ccc(C(COC)CC(=O)O)cc1NC(=O)Nc1ccc(C)cc1)C(F)(F)F` (single isomer, unassigned) [Example 52]: 0.23 µM.

Consider `CC[C@H](CC(=O)O)c1ccc([C@@H](CC)C2CCOCC2)c(Nc2ccc(COC)nc2)c1` (single isomer, unassigned) [Example 129], for which the concentration for half-maximal inhibition (IC50) runs as follows: (read-out: IDO Hela IC50) 0.31 µM; under setting [1], 0.05 to 0.25 µM. On to `CCO[C@@H](c1ccc([C@@H](COC)CC(=O)O)cc1Nc1ccc(Cl)cc1)C(F)(F)F` (single isomer, unassigned) [Example 79], for which, where the note is “read-out: IDO Hela IC50”, the half-inhibitory concentration (IC50) was found to be 0.01 µM. Take `CC[C@H](CC(=O)O)c1ccc([C@H](OC)C(F)(F)F)c(Nc2cnc(C(F)(F)F)nc2)c1` (single isomer, unassigned) [Example 96]: the 50% inhibitory concentration (IC50) (read-out: IDO Hela IC50) turned out to be 0.01 µM.

For the compound `CC[C@H](CC(=O)O)c1ccc([C@@H](OC)C(F)(F)F)c(Nc2ccc(Cl)cc2)c1` (single isomer, unassigned) [Example 83-2], the concentration for half-maximal inhibition (IC50) under setting [1] was below 0.05 µM. As to `CC[C@H](CC(=O)O)c1ccc([C@@H](OC)C(F)(F)F)c(Nc2cnc(C(F)(F)F)nc2)c1` (single isomer, unassigned) [Example 92], the IC50 (read-out: IDO Hela IC50) was found to be 0.01 µM. For “(S)-3-(4-((S)-1-ethoxy-2,2,2-trifluoroethyl)-3-((4-fluorophenyl)amino)phenyl)pentanoic acid [Example 48]”, the half-inhibitory concentration (IC50) under setting [1] is below 0.05 µM. In the case of `CCO[C@H](c1ccc([C@H](COC)CC(=O)O)cc1NC(=O)Nc1ccc(Cl)cc1F)C(F)(F)F` (single isomer, unassigned) [Example 53], the IC50 (read-out: IDO Hela IC50) was found to be 0.04 µM. Same read-out and setting: for `CCOc1ncc(Nc2cc([C@H](CC)CC(=O)O)ccc2[C@H](OC)C(F)(F)F)cn1` (relative stereo) [Example 95, (R)-3-(3-((2-ethoxypyrimidin-5-yl)amino)-4-((S)-2,2,2-trifluoro-1-methoxyethyl)phenyl)pentanoic acid] the value was 0.01 µM; for `CCO[C@H](c1ccc([C@@H](COC)CC(=O)O)cc1Nc1cnc(C)nc1)C(F)(F)F` (single isomer, unassigned) [Example 67], 0.41 µM; for `CCO[C@@H](c1ccc([C@@H](COC)CC(=O)O)cc1Nc1cnc(OC)nc1)C(F)(F)F` (single isomer, unassigned) [Example 76], 0.7 µM.

In the case of `CC[C@@H](CC(=O)O)c1ccc([C@@H](OC)C(F)(F)F)c(Nc2ccc(C#N)cc2)c1` (single isomer, unassigned) [Example 85], the concentration for half-maximal inhibition (IC50) under setting [1] is below 0.05 µM. `CCOc1ncc(Nc2cc([C@@H](COC)CC(=O)O)ccc2[C@H](CC)N2CCOCC2)cn1` (single isomer, unassigned) [Example 103]: the IC50 (read-out: IDO Hela IC50) is 0.2 µM. Turning to `CCO[C@@H](c1ccc([C@H](CC)CC(=O)O)cc1Nc1ccc(C#N)cc1)C(F)(F)F` (single isomer, unassigned) [Example 37], under setting [1], the half-maximal inhibitory concentration (IC50) was below 0.05 µM. With `CC[C@H](CC(=O)O)c1ccc([C@H](OC)C(F)(F)F)c(Nc2cnc(C)nc2)c1` (single isomer, unassigned) [Example 94], where the note is “read-out: IDO Hela IC50”, the IC50 is 0.07 µM.

Turning to `CCO[C@H](c1ccc([C@@H](CC)CC(=O)O)cc1NC(=O)Nc1ccc(Cl)cc1F)C(F)(F)F` (single isomer, unassigned) [Example 20], the IC50 (read-out: IDO Hela IC50) amounted to 0.01 µM. Still for that read-out and setting: the same measure for `CCO[C@@H](c1ccc([C@@H](COC)CC(=O)O)cc1NC(=O)Nc1ccc(Cl)cc1F)C(F)(F)F` (single isomer, unassigned) [Example 75]: 0.04 µM. In the case of `CCO[C@H](c1ccc([C@@H](CC)CC(=O)O)cc1Nc1cnc(C)nc1)C(F)(F)F` (single isomer, unassigned) [Example 28], under setting [1], the IC50 is below 0.05 µM. `CC[C@@H](CC(=O)O)c1ccc([C@@H](CC)N2CCOCC2)c(Nc2ccc(Cl)cc2)c1` (single isomer, unassigned) [Example 132]: the half-inhibitory concentration (IC50) (read-out: IDO Hela IC50) was determined as 0.07 µM.

Regarding `CCO[C@H](c1ccc([C@H](COC)CC(=O)O)cc1Nc1ccc(C#N)cc1)C(F)(F)F` (relative stereo) [Example 57, (R)-3-(3-((4-cyanophenyl)amino)-4-((R)-1-ethoxy-2,2,2-trifluoroethyl)phenyl)-4-methoxybutanoic acid], the concentration for half-maximal inhibition (IC50) (read-out: IDO Hela IC50) was determined as 0.01 µM.

In the case of `CCO[C@@H](c1ccc([C@H](CC)CC(=O)O)cc1NC(=O)Nc1ccc(Cl)cc1F)C(F)(F)F` (single isomer, unassigned) [Example 32], the half-inhibitory concentration (IC50) under setting [1] was below 0.05 µM. In the case of `CCO[C@H](c1ccc([C@H](CC)CC(=O)O)cc1Nc1cnc(COC)nc1)C(F)(F)F` (single isomer, unassigned) [Example 16], the IC50 (read-out: IDO Hela IC50) was 0.61 µM.
